Measurements reported in ChEMBL document CHEMBL1201862, “PubChem BioAssay data set” (2004).
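1) Cells in 96-well plates. 2) Compound, 48 h, 5 concentrations. 3) Linear interpolation between surrounding doses. 4) Unreached endpoint = highest concentration. At the GI50, growth is halved.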 Active and inactive are the calls of the source. Cut-off read from the data, not from the text of the source: active = GI50 up to about 1.1 µM and inactive = higher.

Key:
Assay in all cases: NCI anticancer screen, dose series, 48 h
786-0 = system: 786-0
A498 = system: A498
A549 = system: A549
ACHN = system: ACHN
CAKI-1 = system: CAKI-1
CCRF-CEM = system: CCRF-CEM
COLO 205 = system: COLO 205
DLD-1 = system: DLD-1
DMS-273 = system: DMS-273
EKVX = system: EKVX
HCC 2998 = system: HCC 2998
HCT-116 = system: HCT-116
HCT-15 = system: HCT-15
HL-60 = system: HL-60
HOP-18 = system: HOP-18
HOP-62 = system: HOP-62
HOP-92 = system: HOP-92
HT-29 = system: HT-29
IGROV-1 = system: IGROV-1
K562 = system: K562
KM-20L2 = system: KM-20L2
KM12 = system: KM12
LOX IMVI = system: LOX IMVI
LXFL 529 = system: LXFL 529
M14 = system: M14
M19-MEL = system: M19-MEL
MOLT-4 = system: MOLT-4
Malme-3M = system: Malme-3M
NCI-H226 = system: NCI-H226
NCI-H23 = system: NCI-H23
NCI-H460 = system: NCI-H460
NCI-H522 = system: NCI-H522
OVCAR-3 = system: OVCAR-3
OVCAR-4 = system: OVCAR-4
OVCAR-5 = system: OVCAR-5
OVCAR-8 = system: OVCAR-8
RPMI-8226 = system: RPMI-8226
RXF 393 = system: RXF 393
RXF 631 = system: RXF 631
SF-268 = system: SF-268
SF-295 = system: SF-295
SF-539 = system: SF-539
SK-MEL-28 = system: SK-MEL-28
SK-MEL-2 = system: SK-MEL-2
SK-MEL-5 = system: SK-MEL-5
SK-OV-3 = system: SK-OV-3
SN12C = system: SN12C
SNB-19 = system: SNB-19
SNB-75 = system: SNB-75
SNB-78 = system: SNB-78
SR = system: SR
SW-620 = system: SW-620
TK-10 = system: TK-10
U-251 = system: U-251
UACC-257 = system: UACC-257
UACC-62 = system: UACC-62
UO-31 = system: UO-31
XF498 = system: XF498
DMS-114 = system: DMS-114

Measured: GI50

O=C1NN=C(c2ccc([N+](=O)[O-])cc2)C1n1nc(-c2ccccc2)c2ccccc2c1=O (centres undefined)
> 45.2 µM: HCT-15
inactive: 786-0 > 100 µM | A498 > 100 µM | A549 > 80 µM | ACHN > 100 µM | CAKI-1 > 100 µM | CCRF-CEM > 65.5 µM | COLO 205 > 60.8 µM | DLD-1 > 50.7 µM | DMS-273 > 46 µM | EKVX > 100 µM | HCC 2998 > 100 µM | HCT-116 > 63.8 µM | HL-60 > 45.6 µM | HOP-18 > 100 µM | HOP-62 > 100 µM | HOP-92 > 100 µM | HT-29 > 100 µM | IGROV-1 > 100 µM | K562 > 54.5 µM | KM-20L2 > 100 µM | KM12 > 100 µM | LOX IMVI > 76.9 µM | LXFL 529 > 100 µM | M14 > 100 µM | M19-MEL > 100 µM | MOLT-4 > 94.2 µM | Malme-3M > 100 µM | NCI-H226 > 100 µM | NCI-H23 > 100 µM | NCI-H460 > 92.5 µM | NCI-H522 > 100 µM | OVCAR-3 > 100 µM | OVCAR-4 > 100 µM | OVCAR-5 > 100 µM | OVCAR-8 > 88.1 µM | RPMI-8226 > 48.6 µM | RXF 393 > 100 µM | RXF 631 > 100 µM | SF-268 > 100 µM | SF-295 > 100 µM | SF-539 > 100 µM | SK-MEL-28 > 100 µM | SK-MEL-2 > 100 µM | SK-MEL-5 > 100 µM | SK-OV-3 > 100 µM | SN12C > 100 µM | SNB-19 > 100 µM | SNB-75 > 95.5 µM | SNB-78 > 100 µM | SR > 68.2 µM | SW-620 > 34.2 µM | TK-10 > 100 µM | U-251 > 95.7 µM | UACC-257 > 100 µM | UACC-62 > 100 µM | UO-31 > 100 µM | XF498 > 100 µM

COc1ccc(C2=Nc3ccccc3SC(C)C2)cc1OC (centres undefined)
inactive: 786-0 16.3 µM | A498 23.8 µM | ACHN 22.1 µM | CAKI-1 19.6 µM | CCRF-CEM 31.8 µM | COLO 205 20.4 µM | DMS-114 19.4 µM | DMS-273 16.7 µM | EKVX 24.5 µM | HCC 2998 18.6 µM | HCT-116 17.7 µM | HL-60 22.4 µM | HOP-18 > 10 µM | HOP-92 38.1 µM | HT-29 19.7 µM | IGROV-1 14.6 µM | K562 25.5 µM | KM-20L2 18.8 µM | KM12 16.8 µM | LOX IMVI 17.9 µM | LXFL 529 17.4 µM | M14 18.6 µM | MOLT-4 14.5 µM | Malme-3M 21.4 µM | NCI-H226 20.4 µM | NCI-H23 17.7 µM | NCI-H460 19.2 µM | NCI-H522 17.4 µM | OVCAR-3 16.6 µM | OVCAR-4 22.1 µM | OVCAR-5 24.7 µM | OVCAR-8 22.8 µM | RPMI-8226 13.8 µM | RXF 631 42.2 µM | SF-268 22 µM | SF-295 21 µM | SK-MEL-28 24.6 µM | SK-MEL-2 30.3 µM | SK-MEL-5 17.9 µM | SK-OV-3 20.3 µM | SN12C 20.3 µM | SNB-19 20.2 µM | SNB-75 14.3 µM | SNB-78 27.4 µM | SR 20.8 µM | SW-620 5.66 µM | TK-10 29.8 µM | U-251 17.2 µM | UACC-257 23.5 µM | UACC-62 17.8 µM | UO-31 17.8 µM | XF498 18.2 µM
17.8 µM: HCT-15

CNC(C)Cc1ccc(O)cc1 (centres undefined)
> 100 µM: HCT-15
inactive: 786-0 > 100 µM | A498 > 100 µM | A549 > 100 µM | ACHN > 100 µM | CAKI-1 > 100 µM | CCRF-CEM > 100 µM | COLO 205 > 100 µM | DLD-1 > 100 µM | DMS-114 > 100 µM | DMS-273 > 100 µM | EKVX > 100 µM | HCC 2998 > 100 µM | HCT-116 > 100 µM | HL-60 > 100 µM | HOP-18 > 100 µM | HOP-62 > 100 µM | HOP-92 > 100 µM | HT-29 > 100 µM | IGROV-1 > 100 µM | K562 > 100 µM | KM-20L2 > 100 µM | KM12 > 100 µM | LOX IMVI > 100 µM | LXFL 529 > 100 µM | M14 > 100 µM | MOLT-4 > 100 µM | Malme-3M > 100 µM | NCI-H226 > 100 µM | NCI-H23 > 100 µM | NCI-H460 > 100 µM | NCI-H522 > 100 µM | OVCAR-3 > 100 µM | OVCAR-4 > 100 µM | OVCAR-5 > 100 µM | OVCAR-8 > 100 µM | RPMI-8226 > 100 µM | RXF 393 > 100 µM | RXF 631 > 100 µM | SF-268 > 100 µM | SF-295 > 100 µM | SF-539 > 100 µM | SK-MEL-28 > 100 µM | SK-MEL-2 > 100 µM | SK-MEL-5 > 100 µM | SK-OV-3 > 100 µM | SN12C > 100 µM | SNB-19 > 100 µM | SNB-75 > 100 µM | SNB-78 > 100 µM | SR > 100 µM | SW-620 > 100 µM | TK-10 > 100 µM | U-251 > 100 µM | UACC-257 > 100 µM | UACC-62 > 100 µM | UO-31 > 100 µM | XF498 > 100 µM

COCCOCCOCCOc1cccc2c1C(=O)c1cccc(OCCOCCOCCOC)c1C2=O
> 100 µM: HCT-15
inactive: 786-0 > 100 µM | A498 > 100 µM | A549 > 100 µM | ACHN > 100 µM | CAKI-1 > 100 µM | CCRF-CEM 40.1 µM | COLO 205 > 100 µM | DLD-1 > 100 µM | DMS-114 > 100 µM | DMS-273 > 100 µM | EKVX > 100 µM | HCC 2998 > 100 µM | HCT-116 > 100 µM | HL-60 > 100 µM | HOP-18 > 100 µM | HOP-62 > 100 µM | HOP-92 > 100 µM | HT-29 > 100 µM | IGROV-1 > 100 µM | K562 37.8 µM | KM-20L2 > 100 µM | LOX IMVI 70.1 µM | LXFL 529 > 100 µM | M14 > 100 µM | M19-MEL > 100 µM | MOLT-4 71.8 µM | NCI-H23 > 100 µM | NCI-H460 70.6 µM | OVCAR-3 92.5 µM | OVCAR-4 > 100 µM | OVCAR-8 > 100 µM | RPMI-8226 65.3 µM | RXF 393 92.9 µM | RXF 631 > 100 µM | SF-295 > 100 µM | SF-539 > 100 µM | SK-MEL-28 > 100 µM | SK-MEL-5 81.5 µM | SK-OV-3 > 100 µM | SN12C > 100 µM | SNB-19 > 100 µM | SNB-75 > 100 µM | SNB-78 > 100 µM | SW-620 > 100 µM | TK-10 > 100 µM | U-251 > 100 µM | UACC-257 > 100 µM | UACC-62 > 100 µM | XF498 > 100 µM
